Patent publication EP0183174A2, “Substituted phenoxy urea, processes for its preparation and herbicide containing it as active ingredient” (KUMIAI CHEMICAL INDUSTRY CO., LTD., priority 1984, dated 1986)

What was measured:
Set-up in all cases: key: 5: Withered; 4.5: Herbicidal effect (or phytotoxicity) in a range of 90 to 99%; 4: Herbicidal effect (or phytotoxicity) in a range of 80 to 89%; 3.5: Herbicidal effect (or phytotoxicity) in a range of 70 to 79%; 3: Herbicidal effect (or phytotoxicity) in a range of 60 to 69%; 2.5: Herbicidal effect (or phytotoxicity) in a range of 50 to 59%; 2: Herbicidal effect (or phytotoxicity) in a range of 40 to 49%; 1.5: Herbicidal effect (or phytotoxicity) in a range of 30 to 39%; 1: Herbicidal effect (or phytotoxicity) in a range of 20 to 29%; 0.5: Herbicidal effect (or phytotoxicity) in a range of 1 to 19%; 0: No herbicidal effect (or no phytotoxicity)
[1] = test system: barnyardgrass (Echinochloa crus-galli L.); assay: Test Example 1: herbicidal test by water treatment in a paddy field; type: in vivo; conditions: evaluated thirty days after application
Experimental: (§1) Into each porcelain pot having a diameter of 10 cm, paddy soil was filled and puddled, and seeds of barnyardgrass (Echinochloa crus-galli L.), smallflower flatsedge, monochoria and Japanese bulrush were sown, and water was filled in a-depth of 3 cm. One day later, a predetermined amount of the wettable powder prepared in Formulation Example 3 and diluted with water was dropwise applied to the surface of the water (dose of the active ingredient: 4 kg/hectare). Thereafter, they were grown in a green house. Thirty days after the application, the herbicidal effects were evaluated in accordance with the standards as identified in Table 5.

rice flatsedge = assay: Test Example 3: herbicidal test by upland soil treatment; type: in vivo, Cy^perus iria L.; conditions: evaluated twenty days after application
Source text: (§2) Into each plastic pot of 600 cm^2, upland soil was filled, then seeds of barnyardgrass, crabgrass, green foxtail, redroot pigweed, rice flatsedge, rice, wheat, maize, soybean, cotton and sugar beet were sown, and they were covered with soil. A predetermined amount of the wettable powder prepared from the test compound in accordance with Formulation Example 3 and diluted with water, was uniformly applied to the surface of the soil at an application rate of 1000 liter/hectare by means of a small size spray. They were grown in a greenhouse, and twenty days after the application, the herbicidal effects and phytotoxicity were evaluated in accordance with the standards as identified in Table 5.

barnyardgrass = assay: as above; type: in vivo, Echinochloa crus-galli L.; conditions: evaluated twenty days after application
Source text: as §2

redroot pigweed = assay: as above; type: in vivo, Amaranthus retroflexus L.; conditions: evaluated twenty days after application
Source text: as §2

smallflower flatsedge = assay: Test Example 1: herbicidal test by water treatment in a paddy field; type: in vivo, Cvperus diffcrmis L.; conditions: evaluated thirty days after application
Experimental: as §1

monochoria = assay: as above; type: in vivo, Monochoria vaginalis Presl; conditions: evaluated thirty days after application
Experimental: as §1

[2] = water treatment in paddy field pot, dose of active ingredient 4 kg/hectare
[3] = dose of the active ingredient 4 kg/hectare, wettable powder applied to water surface one day after sowing

CC(C)N(C)C(=O)NOc1cc(Cl)cc(Cl)c1 [Compound No. 186, 3-(3,5-Dichlorophenoxy)-1-isopropyl-1-methyl urea trichloroacetate]
5: Herbicidal effects Barnyard grass [1, 2] | Herbicidal effects Rice flatsedge (rice flatsedge; Dose 1 kg/HA) | Herbicidal effects Rice flatsedge (rice flatsedge; Dose 4 kg/HA) | Herbicidal effects Barnyard-grass (barnyardgrass; Dose 1 kg/HA) | Herbicidal effects Barnyard-grass (barnyardgrass; Dose 4 kg/HA) | Herbicidal effects Redroot pigweed (redroot pigweed; Dose 1 kg/HA) | Herbicidal effects Redroot pigweed (redroot pigweed; Dose 4 kg/HA) | Herbicidal effects Small flower flatsedge (smallflower flatsedge; [2]) | Herbicidal effects Monochoria (monochoria; [2])

CON(C)C(=O)NOc1cc(Cl)ccc1Cl [Compound No. 242, 3-(2,5-Dichlorophenoxy)-1-methoxy-1-methyl urea]
5: Herbicidal effects Barnyard grass [1, 2] | Herbicidal effects Rice flatsedge (rice flatsedge; Dose 1 kg/HA) | Herbicidal effects Rice flatsedge (rice flatsedge; Dose 4 kg/HA) | Herbicidal effects Barnyard-grass (barnyardgrass; Dose 1 kg/HA) | Herbicidal effects Barnyard-grass (barnyardgrass; Dose 4 kg/HA) | Herbicidal effects Redroot pigweed (redroot pigweed; Dose 1 kg/HA) | Herbicidal effects Redroot pigweed (redroot pigweed; Dose 4 kg/HA) | Herbicidal effects Small flower flatsedge (smallflower flatsedge; [2]) | Herbicidal effects Monochoria (monochoria; [2])

COCCNC(=O)NOc1cc(Cl)ccc1Cl [Compound No. 243]
5: Herbicidal effects Barnyard grass [1, 2] | Herbicidal effects Rice flatsedge (rice flatsedge; Dose 1 kg/HA) | Herbicidal effects Rice flatsedge (rice flatsedge; Dose 4 kg/HA) | Herbicidal effects Barnyard-grass (barnyardgrass; Dose 1 kg/HA) | Herbicidal effects Barnyard-grass (barnyardgrass; Dose 4 kg/HA) | Herbicidal effects Redroot pigweed (redroot pigweed; Dose 1 kg/HA) | Herbicidal effects Redroot pigweed (redroot pigweed; Dose 4 kg/HA) | Herbicidal effects Small flower flatsedge (smallflower flatsedge; [2]) | Herbicidal effects Monochoria (monochoria; [2])

CN(C)C(=O)NOc1cc(Cl)ccc1Cl [Compound No. 1, 3-(2,5-Dichlorophenoxy)-1,1-dimethyl urea]
5: Herbicidal effects Barnyard grass [1, 3] | Herbicidal effects Rice flatsedge (rice flatsedge; Dose 1 kg/HA) | Herbicidal effects Rice flatsedge (rice flatsedge; Dose 4 kg/HA) | Herbicidal effects Barnyard-grass (barnyardgrass; Dose 1 kg/HA) | Herbicidal effects Barnyard-grass (barnyardgrass; Dose 4 kg/HA) | Herbicidal effects Redroot pigweed (redroot pigweed; Dose 1 kg/HA) | Herbicidal effects Redroot pigweed (redroot pigweed; Dose 4 kg/HA) | Herbicidal effects Small flower flatsedge (smallflower flatsedge; [3]) | Herbicidal effects Monochoria (monochoria; [3])
